In one data set the target is T1, M2 muscarinic receptor (Homo sapiens, UniProt P08172).
T1 construct: purchased PerkinElmer, Inc., Wellesley, Mass; host or cells: CHO cells
T1 sequence (P08172 1-466): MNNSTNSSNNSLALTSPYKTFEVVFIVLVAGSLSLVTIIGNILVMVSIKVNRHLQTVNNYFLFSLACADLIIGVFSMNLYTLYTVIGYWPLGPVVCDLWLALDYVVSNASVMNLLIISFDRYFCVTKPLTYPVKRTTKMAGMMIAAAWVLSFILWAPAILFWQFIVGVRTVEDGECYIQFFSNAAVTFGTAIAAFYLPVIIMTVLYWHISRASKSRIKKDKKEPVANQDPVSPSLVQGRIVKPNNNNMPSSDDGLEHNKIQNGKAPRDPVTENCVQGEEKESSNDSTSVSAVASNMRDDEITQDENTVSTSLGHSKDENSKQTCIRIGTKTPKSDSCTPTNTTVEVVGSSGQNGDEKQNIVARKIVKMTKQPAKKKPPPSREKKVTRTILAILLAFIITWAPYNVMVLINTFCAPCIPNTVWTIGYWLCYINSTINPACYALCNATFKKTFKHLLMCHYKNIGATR
In words: M2 binding assay ([3H]-scopolamine, N-methyl chloride displacement).

The next data set in a line: Pharmacokinetics in rats. In kind it is in vivo, rat. The following applies: 3 mg/kg. The method, then: HY2901 was administered to rats, dogs, and cynomolgus monkeys at a dose of 3 mg/kg orally and intravenously. Plasma samples were collected from all species for pharmacokinetic analysis. […] HY2901 is 75% protein bound in rat plasma and 60% protein bound in human plasma.

A short description of data set [1]: Excretion in urine of animal species. It counts as in vivo.
Data set [2] in a line: In vitro rate of metabolism in rat hepatocyte cultures. In kind it is in vitro ADME. On the procedure:
(§1) Cytochrome P450 inhibition was studied with HY2901 in vitro. […] In addition, the in vitro rate of metabolism in rat, dog, monkey, and human hepatocyte cultures was determined for HY2901.

Data set [3] can be described thus: In vitro rate of metabolism in human hepatocyte cultures. In kind it is in vitro ADME. On the procedure: as §1
Another data set has as its system telemetered Beagle dogs. In words: ECG and arterial blood pressure in telemetered Beagle dogs. It counts as in vivo, dog. The method, then: To determine if HY2901 could produce any changes in QT interval, the compound was studied in telemetered Beagle dogs. Dogs were implanted with devices to continuously monitor ECG and arterial blood pressure. Dogs (groups of 4) were studied in a Latin square cross-over design, with each dog receiving 3 different doses and a placebo. Two studies were conducted with doses of 0.3, 1, 3, 10, and 30 mg/kg. […] The tachycardia persisted for 6-8 hours postdose at 0.3 and 1 mg/kg. A ceiling effect to the heart rate increase seemed to exist with heart rates peaking at approximately 150-160 in both the 10 and 30 mg/kg dose groups.

A further data set relates to Crl: CD(SD)IGS BR rats. In words: Acute rat study (toxicity and MTD, oral gavage). It counts as in vivo. The method, then:
The purpose of this study was to evaluate the toxicity and maximum tolerated dose (MTD) of the test articles when given via oral gavage to rats. Male Crl: CD®(SD)IGS BR rats (3/group) were assigned to 5 groups. At initiation of dosing, animals were approximately 7 weeks old with body weights ranging from 172 to 206 g. Each group received either 50, 100, 150, 200, or 250 mg/kg of HY2901 once daily for 5 days. All surviving animals were sacrificed on Day 6. Assessment of toxicity was based on mortality, clinical observations, and body weight data.

For data set [4], the system named is purebred Beagles. In words: Acute dog study (toxicity and MTD, escalating oral doses). In kind it is in vivo.
A further data set relates to Crl:CD(SD)IGS BR rats. In words: 14-Day rat study with recovery. In kind it is in vivo. The method, then: The purpose of this study was to evaluate the toxicity of HY2901 when administered via oral gavage to rats for at least 14 days and to assess the reversibility, persistence, or delayed occurrence of any effects after a recovery period of up to 14 days.
Male and female Crl:CD®(SD)IGS BR rats were assigned to seven groups, four main study groups and three groups for toxicokinetics. Each group received dose preparations containing 0.25% methylcellulose, 400 cps in 200 mM acetate buffer, or 10, 30, or 150 mg of test article/kg of body weight (mg/kg/day) at a dose volume of 5 mL/kg.
Assessment of toxicity was based on mortality, clinical and ophthalmic observations, body weights, food consumption, clinical pathology, organ weights, and macroscopic and microscopic findings. Blood samples were collected for toxicokinetic evaluation.

Data set [5] has as its system purebred Beagles. In words: 14-Day dog study with recovery phase. In kind it is in vivo. On the procedure:
The toxicity and the toxicokinetics of HY2901 when administered daily via oral gavage (Phase 1) or capsules (Phase 2) to dogs for at least 14 days was determined. The reversibility, persistence, or delayed occurrence of observable effects following a 7-day (Phase 1) or 14-day (Phase 2) recovery period was also assessed. Doses of 3, 10, 30, and 70 mg/kg/day were studied.

The target in another data set is T2, M3 muscarinic receptor (Homo sapiens, UniProt P20309).
T2 construct: purchased PerkinElmer, Inc., Wellesley, Mass; host or cells: CHO cells
In words: M3 binding assay ([3H]-scopolamine, N-methyl chloride displacement).

Data set [6] relates to male Wistar rats. In kind it is in vivo. The following applies: oral. The method, then: The Irwin screen can provide useful information on potential side effects of compounds on general physiological and behavioural functions. The screen was conducted by administering the test compounds orally in 0.25% aqueous methylcellulose using male Wistar rats, a frequently used species in such studies and for which background data are readily available.
The Irwin screen tests for numerous parameters in animals that have been administered the test compound. For example, the screen can include: in-cage effects, e.g., dispersion, respiratory rate, locomotor activity, restlessness, fighting, alertness, apathy, and exophthalmus; in-arena effects, e.g., transfer arousal, spatial locomotion, ptosis, startle, tail elevation, piloerection, touch escape, positional passivity, catalepsy, tighting reflex, visual placing, grip strength, pinna, corneal, pain response, and wire manoeuvre; parameters observed in handling, e.g., cyanosis, cutaneous blood flow, hypothermia, body tone, pupil size, light-pupil response, lacrimation, grooming, red staining, salivation, and provoked biting; general scores e.g., fearfulness, irritability, abnormal gait, abnormal body carriage, tremors, twitches, convulsions, bizarre behaviour, writhing, vocalisation, diarrhoea, number of defaecations, number of urinations, moribund, lethality, and abnormalities detected. Further details can be found in Irwin, S; Comprehensive observational assessment: I a. A systematic, quantitative procedure for assessing the behavioural and physiological state of the mouse. […]

The next data set deals with hERG channel (Homo sapiens, UniProt Q12809).
The test system of data set [7] is male Wistar rats. In words: SCORE-2000 sleep-wakefulness, locomotor activity and body temperature monitoring. The following applies: oral, CT-18.
The next data set concerns the target T3, H1 histamine receptor (Bos taurus, UniProt P30546).
T3 construct: the receptors were obtained from bovine cerebellar membrane tissue; from tissue; host or cells: bovine cerebellar membranes
The following applies: reference compounds; unit inferred; read-out: Ki, H1 binding assay reference compounds; cited from earlier work.

The mark [8] stands for this setting: 50-250 mg/kg once daily for 5 days.

Read-outs that look alike come from different tables or passages of the source. Some results are limits rather than exact numbers.

A word on the Ki: it is the dissociation constant of the complex between target and ligand, obtained from inhibition or displacement.

T2 sequence (P20309 whole entry): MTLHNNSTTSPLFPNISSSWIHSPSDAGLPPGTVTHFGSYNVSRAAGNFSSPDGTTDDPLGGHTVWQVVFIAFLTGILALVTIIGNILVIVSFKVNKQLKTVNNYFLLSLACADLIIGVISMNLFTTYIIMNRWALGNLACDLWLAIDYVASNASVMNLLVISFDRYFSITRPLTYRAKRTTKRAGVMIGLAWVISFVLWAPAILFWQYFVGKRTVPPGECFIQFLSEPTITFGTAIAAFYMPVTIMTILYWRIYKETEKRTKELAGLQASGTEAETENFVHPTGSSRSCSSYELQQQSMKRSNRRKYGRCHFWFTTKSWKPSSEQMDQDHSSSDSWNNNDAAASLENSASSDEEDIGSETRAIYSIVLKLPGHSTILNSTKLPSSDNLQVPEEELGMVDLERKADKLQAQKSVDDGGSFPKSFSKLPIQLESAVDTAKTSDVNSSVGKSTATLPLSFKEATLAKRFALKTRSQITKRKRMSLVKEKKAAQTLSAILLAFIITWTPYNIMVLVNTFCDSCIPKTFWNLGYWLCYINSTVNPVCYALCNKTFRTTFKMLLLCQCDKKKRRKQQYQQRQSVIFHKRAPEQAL
T3 sequence (P30546 whole entry): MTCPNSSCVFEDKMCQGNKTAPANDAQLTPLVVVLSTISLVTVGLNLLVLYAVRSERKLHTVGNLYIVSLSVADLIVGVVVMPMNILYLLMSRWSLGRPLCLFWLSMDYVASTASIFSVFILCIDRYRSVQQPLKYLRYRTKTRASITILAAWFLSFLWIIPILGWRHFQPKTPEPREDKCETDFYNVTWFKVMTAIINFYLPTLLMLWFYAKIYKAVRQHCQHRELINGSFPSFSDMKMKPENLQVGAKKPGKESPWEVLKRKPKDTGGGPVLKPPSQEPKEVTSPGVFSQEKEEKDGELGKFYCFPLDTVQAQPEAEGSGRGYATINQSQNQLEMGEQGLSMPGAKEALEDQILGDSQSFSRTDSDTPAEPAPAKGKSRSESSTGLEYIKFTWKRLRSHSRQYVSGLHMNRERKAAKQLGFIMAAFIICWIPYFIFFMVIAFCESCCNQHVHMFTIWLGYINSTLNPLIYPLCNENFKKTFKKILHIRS
hERG channel, sequence (Q12809 whole entry): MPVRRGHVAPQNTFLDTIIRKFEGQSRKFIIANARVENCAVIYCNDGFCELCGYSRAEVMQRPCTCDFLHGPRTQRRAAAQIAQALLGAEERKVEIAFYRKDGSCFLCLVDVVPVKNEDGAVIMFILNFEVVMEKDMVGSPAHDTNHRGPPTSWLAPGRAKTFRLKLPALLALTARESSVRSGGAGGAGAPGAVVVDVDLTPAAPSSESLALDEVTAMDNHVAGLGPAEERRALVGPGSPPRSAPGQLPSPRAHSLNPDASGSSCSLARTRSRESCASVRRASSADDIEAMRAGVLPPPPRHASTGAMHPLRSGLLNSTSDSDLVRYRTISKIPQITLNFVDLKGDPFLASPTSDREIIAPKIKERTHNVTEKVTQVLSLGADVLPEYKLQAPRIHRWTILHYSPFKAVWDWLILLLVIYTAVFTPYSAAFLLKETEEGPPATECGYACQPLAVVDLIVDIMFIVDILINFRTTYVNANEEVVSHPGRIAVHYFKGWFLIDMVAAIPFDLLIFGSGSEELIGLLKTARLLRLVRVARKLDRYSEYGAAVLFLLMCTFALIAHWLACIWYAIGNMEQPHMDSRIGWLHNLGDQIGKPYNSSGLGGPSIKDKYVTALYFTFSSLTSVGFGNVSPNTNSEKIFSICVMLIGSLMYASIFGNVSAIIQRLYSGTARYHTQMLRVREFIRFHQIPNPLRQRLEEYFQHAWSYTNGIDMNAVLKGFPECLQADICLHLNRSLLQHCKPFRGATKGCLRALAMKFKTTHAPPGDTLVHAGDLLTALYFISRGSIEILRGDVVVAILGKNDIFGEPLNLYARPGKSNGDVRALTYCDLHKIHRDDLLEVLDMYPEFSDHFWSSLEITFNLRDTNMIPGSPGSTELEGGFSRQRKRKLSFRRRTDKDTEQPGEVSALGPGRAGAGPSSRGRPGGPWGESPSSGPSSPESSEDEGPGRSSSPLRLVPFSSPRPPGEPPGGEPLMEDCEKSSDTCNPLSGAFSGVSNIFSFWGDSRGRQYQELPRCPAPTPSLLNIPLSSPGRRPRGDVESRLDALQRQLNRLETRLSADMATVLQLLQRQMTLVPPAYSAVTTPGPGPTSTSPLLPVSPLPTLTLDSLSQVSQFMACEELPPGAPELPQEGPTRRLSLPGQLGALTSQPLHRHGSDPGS

Take `C[N+]1(C)C2CC(OC(=O)C(CO)c3ccccc3)CC1C1OC12.[Br-]` (single isomer, unassigned; (-)) [scopolamine, MethylBr, (−)-scopolamine, methyl-, bromide, reference compound]: the “Slope, M2 binding curve” value on M2 muscarinic receptor was −0.89.

On to `CC(C)(CN1CCC(=C2c3ccc(F)cc3COc3ccccc32)CC1)C(=O)O` [Compound 49a], for which the “absorption after oral administration” value in “Pharmacokinetics in rats” (all species (rat, dog, cynomolgus monkey)) is “rapidly and highly absorbed”. For the same compound, the Peak plasma levels entry in the data set “Pharmacokinetics in rats” (rats, most efficacious dose in the sleep assay) is listed as “less than 1.5 mM”. In addition, the “drug and metabolites in urine” value in data set [1] is “Unchanged HY2901, as well as metabolites, has been found in the urine”. Besides, the metabolism by hepatocytes result in data set [2] is on record as “extensively metabolized”; in [3], “little metabolism”. The “changes in QT or corrected QT interval” value with telemetered Beagle dogs (0.3, 1, 3, 10 and 30 mg/kg, any dose) is on record as “no changes”. Besides, the heart rate effect entry in the data set with telemetered Beagle dogs (0.3-30 mg/kg, intravenous or oral) was “dose-related sinus tachycardia”. Moreover, the “persistence of tachycardia postdose” value in the data set on telemetered Beagle dogs (0.3 and 1 mg/kg) was in the range of 6 to 8 h. Besides, in the data set with telemetered Beagle dogs (10 and 30 mg/kg dose groups), the peak heart rate is given as 150-160. For the same compound, the “persistence of sinus tachycardia” value with telemetered Beagle dogs (higher doses) lay in the range of 10 to 12 h. The blood pressure result in the data set with telemetered Beagle dogs (paralleled the tachycardia) was “slight increase”. Moreover, the hypoactivity entry with Crl: CD(SD)IGS BR rats (setting [8]) was “observed in all rats”. Also, the “incidence and duration of ataxia” value in the data set on Crl: CD(SD)IGS BR rats (setting [8]) is reported as “dose-response relationship was observed”. For the same compound, in the data set on Crl: CD(SD)IGS BR rats (two 250 mg/kg rats), the “Day 6 body weights” value is “slightly decreased”. In addition, the clinical signs result was “No clinical signs of toxicity” with purebred Beagles [4] (25 mg/kg); “body tremors, mild to moderate ataxia, excessive salivation and hypoactivity” in the data set with purebred Beagles [4] (40 mg/kg on Day 5); “Body tremors, mild to severe ataxia, and hypoactivity” in the data set on purebred Beagles [4] (50 mg/kg); “Tremors (entire body, hind limbs, and/or head), mild to moderate ataxia, hypoactivity” in the data set with purebred Beagles [4] (75 mg/kg). Moreover, the “effect on body weight” value in the data set on purebred Beagles [4] (dog, in vivo) is “minimal effect”. In the data set with Crl:CD(SD)IGS BR rats (150 mg/kg/day rats, Week 1), the food consumption entry is reported as “depression in food consumption”. For the same compound, the unscheduled deaths result with Crl:CD(SD)IGS BR rats (10, 30, 150 mg/kg/day) is “largely restricted to the 150 mg/kg/day groups”. Besides, the “increases in Cmax and AUC(0-t) with dose” value with Crl:CD(SD)IGS BR rats (10 to 150 mg/kg/day, except Cmax at 150 mg/kg/day on Day 14) is reported as “greater than dose proportional”. For the same compound, the ophthalmic observations result with Crl:CD(SD)IGS BR rats (any group) was “No ophthalmic lesions”. The clinical observations result is “no treatment-related clinical observations” with purebred Beagles [5] (3 mg/kg/day, Phase 1); “treatment-related head tremors, ataxia, hypoactivity, and excessive salivation” in the data set with purebred Beagles [5] (Phase 2). The survival entry in the data set with purebred Beagles [5] (Beagle, dog, in vivo, 14 days) is “survived until scheduled sacrifice”. Moreover, in the data set with purebred Beagles [5] (Phase 1 and 2), the clinical pathology data entry is recorded as “no evidence in the clinical laboratory data of an effect”.

Regarding `CC(C)(CCN1CCC(=C2c3ccccc3COc3ccccc32)CC1)C(=O)O` [Compound 70a], on M3 muscarinic receptor, the Ki is over 10 µM.

In the case of `O=C(O)C1(CCN2CCC(=C3c4ccccc4COc4ccccc43)CC2)CC1` [Compound 70b], the “Side effects in Irwin screen” value in the data set on male Wistar rats [6] (10 mg/kg dose) is reported as “clean”; with male Wistar rats [6] (30 mg/kg dose), “clean”; with male Wistar rats [6] (100 mg/kg dose) it was “some side effects”. The hERG blocking at hERG channel was 50.2%. Moreover, the LUSB is 8.3 min with male Wistar rats [7] (dose 10 mg/kg) and 13.8 min in the data set with male Wistar rats [7] (dose 30 mg/kg). In addition, the figures for the NREM in the data set with male Wistar rats [7] (dose 10 mg/kg) and with male Wistar rats [7] (dose 30 mg/kg) were 33.7 min and 43.2 min, respectively.

Consider `CN(C)CCCSC(=N)N` [dimaprit], for which the Ki at H1 histamine receptor was over 10 µM.

Source of the values: US7411069B2 (Hypnion, Inc., priority 2003, dated 2008).
